Where two headings read alike, the source gives them in different places.
What was measured:
Test in all cases: TMA inhibition in bacterial whole cells (LC–MS/MS of d9-TMA from d9-choline)
E. coli MS 200-1 = assay type: cell-based, Escherichia coli MS 200-1
Method: (§1) For TMA inhibition assays, E. coli and P. mirabilis were grown in NCE medium supplemented with 20 mM choline chloride, A. hydrogenalis was grown in MEGA medium supplemented with 3 mM choline chloride, and C. sporogenes was grown in BHI medium supplemented with 20 mM of choline chloride to induce expression of the cut gene cluster. For MIC assays, all bacteria strains were grown in MEGA medium.
(§2) Compounds were stored as 10 mM DMSO stocks at –20°C and diluted in DMSO to prepare varying concentrations of inhibitors for testing. Bacteria were grown anaerobically overnight in media supplemented with choline as described above. Cells were pelleted and resuspended in PBS, and d9-choline chloride was added to a final concentration of 1 mM. The final OD600 of the PBS cell resuspensions is as follows: 0.4 (E. coli), 0.15–0.2 (P. mirabilis), 0.2 (C. sporogenes), and 0.4 (A. hydrogenalis). The resuspended cells were added to 96-well plates containing inhibitors (final concentration of 1% DMSO, with final inhibitor concentrations ranging between 0 and 325 µM). The plates were sealed and incubated for 75 min (or 90 min for P. mirabilis) at 37°C. Following incubation, the plates were removed from the anaerobic chamber and analyzed immediately or kept at –20°C until LC–MS/MS analysis. Each inhibitor concentration was tested in triplicate. EC50 values were calculated with GraphPad Prism by fitting the log(inhibitor) vs response—Variable slope (four-parameter) model for non-linear regression.
(§3) Samples were kept frozen until analysis and kept cold on ice during handling due to the volatility of TMA. Bacterial cell resuspensions in PBS were diluted 100-fold in LCMS-grade acetonitrile with 0.1% formic acid to lyse cells, precipitate proteins, and extract metabolites. Samples were centrifuged at 4,000 rpm for 10 min at 4°C to pellet proteins. The supernatants were then further diluted 20-fold in LCMS-grade acetonitrile with 0.1% formic acid, and the resulting solution was analyzed by LC–MS/MS.
(§4) LC–MS/MS analysis was performed on an Agilent 1290/6470 Triple Quadrupole LC–MS instrument (Agilent Technologies) using electrospray ionization. The mass spectrometer was operated in multiple reaction monitoring (MRM) mode with positive ionization monitoring. The precursor–product ion pairs used in MRM mode were as follows: m/z 69.1m/z → 49.1 (d9-TMA) and m/z 113.2 m/z → 69.1 (d9-choline). The capillary voltage was set to 4.0 kV, and the fragmentor voltage was set to 30 V (d9-TMA) and 115 V (d9-choline). The collision energy for the precursor–product ion pairs was set to 29 V (d9-TMA) and 21 V (d9-choline). MS^1 resolution was set to wide and MS^2 resolution to unit. The drying gas temperature was maintained at 250°C, with a flow rate of 11 L/min and a nebulizer pressure of 45 psi. The time filter width used was 0.07 min. The injection volume of all samples was 1 μL. Samples were injected onto InfinityLab Poroshell 120 (Agilent) HILIC columns (2.7 μm, 100 mm × 2.1 mm, 100 Å) preceded by InfinityLab Poroshell 120 HILIC guard columns (2.1 mm, 1.9µm UHPLC guard). The LC conditions on the binary pump were as follows: a gradient of 5–35% A increasing over 1.95 min (1.2 mL/min), a gradient of 35–5% A decreasing over 0.05 min (1.6 mL/min), and held at 5% A for 0.5 min (2 mL/min). […] Solvent A was 10 mM ammonium formate with 0.1% formic acid, and solvent B was acetonitrile with 0.1% formic acid. Data analysis was performed with Mass Hunter Workstation Data Acquisition and Qualitative Analysis software (Agilent Technologies).

[1] = tested on: Clostridium sporogenes ATCC 15579; assay type: cell-based; conditions: 1 mM d9-choline in PBS, 75 min, 37°C, anaerobic
Method: as §1, §2, §3, §4

[2] = tested on: Proteus mirabilis ATCC 29906; assay type: cell-based; conditions: 1 mM d9-choline in PBS, 90 min, 37°C, anaerobic; for EC50: read-out: EC50 in whole cells, P. mirabilis (TMA inhibition)
Method: as §1, §2, §3, §4

[3] = tested on: Anaerococcus hydrogenalis DSM 7454; assay type: cell-based; conditions: 1 mM d9-choline in PBS, 75 min, 37°C, anaerobic
Method: as §1, §2, §3, §4

[4] = Escherichia coli, MS2001, 1.25 h, 1 mM d9-choline in PBS, 75 min, 37°C, anaerobic
[5] = Anaerococcus hydrogenalis, DSM7454, 1.25 h
[6] = Clostridium sporogenes, ATCC15579, 1.25 h
[7] = Proteus mirabilis, ATCC29906, 1.5 h
[8] = 1 mM d9-choline in PBS, 75 min, 37°C, anaerobic

SMILES | EC50 (E. coli MS 200-1; [4]) | EC50 (E. coli MS 200-1; [8]) | EC50 [1] | EC50 [2] | other results
Cc1ccc(-c2cc(C(=O)NCCN)c(C)[nH]2)cc1C [C00008] | 140 µM | – | – | – | EC50 in whole cells, C. sporogenes (TMA inhibition) [1]: No inhibition at 312; EC50 in whole cells, P. mirabilis (TMA inhibition) [2]: No inhibition at 312
Cc1ccc(-c2cc(C(=O)NCCCCN3CCCCCC3)c(C)[nH]2)cc1C [C00018] | 8 µM | – | – | – | EC50 [3, 5]: 7 µM; EC50 [1, 6]: 68 µM; EC50 [2, 7]: 33 µM
Cc1ccc(-c2ncc(C(=O)NCCCN3CCC(C)CC3)s2)cc1C [Compound 14] | – | 27 µM | 215 µM | 197 µM | –
Cc1ccc(-c2ccc(C(=O)NCCCN3CCC(C)CC3)[nH]2)cc1C [Compound 10] | – | 98 µM | 312 µM | 63 µM | –
Cc1ccc(-c2cc(C(=O)NCCCN3CCOCC3)c(C)[nH]2)cc1C [C00011] | > 125 µM | – | – | – | EC50 in whole cells, C. sporogenes (TMA inhibition) [1]: No inhibition at 312; EC50 in whole cells, P. mirabilis (TMA inhibition) [2]: No inhibition at 312
Cc1ccc(-c2c[nH]c(C(=O)NCCCN3CCC(C)CC3)c2)cc1C [Compound 11] | – | 13 µM | > 312 µM | 42 µM | –
CCc1[nH]c(-c2ccc(C)c(C)c2)cc1C(=O)NCCCN1CCC(C)CC1 [Compound 9] | – | 35 µM | 103 µM | – | –
C#CCn1c(-c2ccc(C)c(C)c2)cc(C(=O)NCCCN2CCC(C)CC2)c1C [Compound 16] | – | 39 µM | 5 µM | – | –
COCCNC(=O)c1cc(-c2ccc(C)c(C)c2)[nH]c1C [C00007] | – | – | – | – | EC50 in whole cells, E. coli (TMA inhibition) (E. coli MS 200-1; [8]): No inhibition at 100; EC50 in whole cells, C. sporogenes (TMA inhibition) [1]: No inhibition at 100
Cc1ccc(-c2cc(C(=O)NCCC3=CCCCC3)c(C)[nH]2)cc1C [C00006] | > 100 µM | – | – | – | EC50 in whole cells, C. sporogenes (TMA inhibition) [1]: No inhibition at 100
Cc1ccc(-c2cc(C(=O)NCCCN3CCC(C)CC3)cs2)cc1C [Compound 13] | – | 14 µM | 85 µM | 50 µM | –
Cc1ccc(-c2cc(C(=O)NCCCN3CCC(C)CC3)c(C)o2)cc1C [Compound 12] | – | 15 µM | – | > 312 µM | EC50 [3]: 54 µM
Cc1ccc(-c2cc(C(=O)NCCCN3CCCC3)c(C)[nH]2)cc1C [C00014] | 11 µM | – | – | – | EC50 [3, 5]: 83 µM; EC50 [1, 6]: 78 µM; EC50 [2, 7]: 104 µM
Cc1ccc(-c2cc(C(=O)NCCCN3CCCCC3)c(C)[nH]2)cc1C [C00015] | 10 µM | – | – | – | EC50 [3, 5]: 244 µM; EC50 [1, 6]: 267 µM; EC50 [2, 7]: 193 µM
CCCNCCNC(=O)c1cc(-c2ccc(C)c(C)c2)[nH]c1C [C00009] | 60 µM | – | – | – | EC50 [1, 6]: > 312 µM; EC50 [2, 7]: > 312 µM
Cc1ccc(-c2cc(C(=O)NCCCN3CCN(C)C(=O)C3)c(C)[nH]2)cc1C [C00013] | > 125 µM | – | – | – | EC50 [1, 6]: > 312 µM; EC50 in whole cells, P. mirabilis (TMA inhibition) [2]: No inhibition at 312
Cc1ccc(-c2cc(C(=O)NCCCN3CCC(C)CC3)cn2C)cc1C [Compound 15] | – | 21 µM | – | 98 µM | –
Cc1ccc(-c2cc(C(=O)NCCCN3CCC(C)CC3)c(C)n2-c2ccccc2)cc1C [Compound 18] | – | 489 µM | 3 µM | – | –
Cc1ccc(-c2cc(C(=O)NCCCN3CCC(C)CC3)c(C)[nH]2)cc1 [Compound 24] | – | 92 µM | – | 131 µM | –
CCCN(CCC)CCNC(=O)c1cc(-c2ccc(C)c(C)c2)[nH]c1C [C00010] | 200 µM | – | – | – | EC50 [1, 6]: > 312 µM; EC50 [2, 7]: > 312 µM
Cc1[nH]c(C2CCCCC2)cc1C(=O)NCCCN1CCC(C)CC1 [Compound 21] | – | 51 µM | 8 µM | – | EC50 [3]: 32 µM
Cc1ccc(-c2cc(C(=O)NCCCCCN3CCCCCC3)c(C)[nH]2)cc1C [C00019] | 2 µM | – | – | – | –
Cc1ccc(-c2cc(C(=O)NCCCN3CCC(C)CC3)c(C)n2C2CCCC2)cc1C [Compound 17] | – | 69 µM | 8 µM | – | –
Cc1ccc(-c2[nH]cc(C(=O)NCCCN3CCC(C)CC3)c2C)cc1C [Compound 8] | – | > 125 µM | 97 µM | 131 µM | Fold increase of EC50 in E. coli (E. coli MS 200-1; compared with compound 6): more than 10 fold
Cc1ccc(-c2cc(C(=O)NCCCN3CCC(C)CC3)c(C)[nH]2)cc1C [C00002] | 9 µM | – | – | – | –

Reference: paper PMC12977544, “Phenotypic high-throughput screening identifies modulators of gut microbial choline metabolism” (mBio, 2026)
